Experiment in all cases: In vitro combination study with tazemetostat, cell proliferation (Cell Titer Glo)
In general terms: In ATP-based viability assays light output follows the ATP content of the culture.

Assay [1] concerns A427. The note with it: for combinatorial effect with tazemetostat (Loewe volume class): A427, 7 days tazemetostat pre-treatment, 6 days co-treatment with second agent.
In assay [2] the test system is A549. The note with it: 7 days tazemetostat pre-treatment, 6 days co-treatment with second agent.
Description: (§1) Initial proliferation studies were performed to determine the IC50 of tazemetostat in each cell line. For the screen, tazemetostat was used at concentrations bracketed around the IC50 value. If 50% inhibitory concentration was not reached then tazemetostat was tested starting at 10 μM.
(§2) In order to study the effect of dual combination of tazemetostat and a second agent on cell proliferation, cells in log-linear phase growth rate were pre-treated with various concentrations of tazemetostat or DMSO for 7 days in flasks, plated in 384-well plates in the absence of compounds and co-treated on day 8 with tazemetostat or DMSO and the second agent serially diluted for additional 6 days (as depicted in FIG. 1). On day 15, plates were developed for endpoint analysis using Cell Titer Glo to measure ATP content, which was used as an indicator of cell viability. DMSO concentration was kept constant throughout the assay at 0.15% v/v.
Assay [3] relates to NCI-H1299. The settings on record: 7 days tazemetostat pre-treatment, 6 days co-treatment with second agent.
Description: as §1, §2
In assay [4] the test system is NCI-H1573. The note with it: 7 days tazemetostat pre-treatment, 6 days co-treatment with second agent.
Description: as §1, §2
(§3) NCI-H1573 was cultured in DMEM: F12 Medium containing the following components: 0.02 mg/ml insulin, 0.01 mg/ml transferrin, 25 nM sodium selenite, 50 nM Hydrocortisone, 1 ng/ml Epidermal Growth Factor, 0.01 mM ethanolamine, 0.01 mM phosphorylethanolamine, 100 pM triiodothyronine, 0.5% (w/v) bovine serum albumin, 0.5 mM sodium pyruvate, 4.5 mM L-glutamine and 1% v/v Pen/Strep.
Assay [5] concerns NCI-H1703. The settings on record: 7 days tazemetostat pre-treatment, 6 days co-treatment with second agent.
Description: as §1, §2
The subject of assay [6] is NCI-H1793. The note with it: 7 days tazemetostat pre-treatment, 6 days co-treatment with second agent.
In assay [7] the test system is NCI-H1993. The settings on record: 7 days tazemetostat pre-treatment, 6 days co-treatment with second agent.
Description: as §1, §2
Assay [8] relates to NCI-H2030. The note with it: 7 days tazemetostat pre-treatment, 6 days co-treatment with second agent.
Description: as §1, §2
In assay [9] the test system is NCI-H2110. The settings on record: 7 days tazemetostat pre-treatment, 6 days co-treatment with second agent.
Description: as §1, §2
Assay [10] concerns NCI-H2122. The note with it: 7 days tazemetostat pre-treatment, 6 days co-treatment with second agent.
Description: as §1, §2
(§4) All cell lines were obtained from American Type Culture Collection (ATCC; Rockville, Md.). […] A427, Calu-3, Calu-6 cell lines were cultured in EMEM+10% Fetal bovine serum (FBS)+1% v/v Penicillin/Streptomycin (P/S).
Assay [11] deals with NCI-H23. The note with it: 7 days tazemetostat pre-treatment, 6 days co-treatment with second agent.
For assay [12], the system named is NCI-H460. The settings on record: 7 days tazemetostat pre-treatment, 6 days co-treatment with second agent.
Description: as §1, §2, §4
Assay [13] deals with NCI-H522. The settings on record: 7 days tazemetostat pre-treatment, 6 days co-treatment with second agent.
Assay [14] deals with NCI-H661. The settings on record: 7 days tazemetostat pre-treatment, 6 days co-treatment with second agent.
Description: as §1, §2, §4
The test system of assay [15] is NCI-H838. The note with it: 7 days tazemetostat pre-treatment, 6 days co-treatment with second agent.
Description: as §1, §2, §3
The test system of assay [16] is Calu-3. The note with it: 7 days tazemetostat pre-treatment, 6 days co-treatment with second agent.
Description: as §1, §2, §3
Assay [17] deals with Calu-6. The note with it: 7 days tazemetostat pre-treatment, 6 days co-treatment with second agent.
In assay [18] the test system is HCC827. The note with it: 7 days tazemetostat pre-treatment, 6 days co-treatment with second agent.
Description: as §1, §2, §3

SMILES strings stand for the structures.

Take `Cc1cc(Nc2ncc(Cl)c(Nc3ccccc3S(=O)(=O)C(C)C)n2)c(OC(C)C)cc1C1CCNCC1` [Ceritinib, ceritinib]: the “combinatorial effect with tazemetostat (Loewe volume class)” value (“combinatorial effect with tazemetostat” below) in assay [1] was “Syn. (Loewe volumes greater than 1 denoted “synergy”)”; in [2] it was “Add. (A value between −1 and 1 denoted “additivity”)”; in assay [3] it was “Add. (A value between −1 and 1 denoted “additivity”)”; in assay [4], “Syn. (Loewe volumes greater than 1 denoted “synergy”)”; in [5], “Add. (A value between −1 and 1 denoted “additivity”)”; in assay [6] it was “Add. (A value between −1 and 1 denoted “additivity”)”. In addition, the “combinatorial effect with tazemetostat” value was “Syn. (Loewe volumes greater than 1 denoted “synergy”)” in assay [7]; “Add. (A value between −1 and 1 denoted “additivity”)” in assay [8]; “Add. (A value between −1 and 1 denoted “additivity”)” in [9]; “Anta. (volumes <−1 denoted “antagonism”)” in [10]; “Add. (A value between −1 and 1 denoted “additivity”)” in assay [11]; “Add. (A value between −1 and 1 denoted “additivity”)” in [12]. Also, the “combinatorial effect with tazemetostat” value in assay [13] is “Add. (A value between −1 and 1 denoted “additivity”)”; in assay [14], “Syn. (Loewe volumes greater than 1 denoted “synergy”)”; in assay [15], “Syn. (Loewe volumes greater than 1 denoted “synergy”)”; in assay [16] it was “Add. (A value between −1 and 1 denoted “additivity”)”; in assay [17] it was “Add. (A value between −1 and 1 denoted “additivity”)”; in assay [18], “Add. (A value between −1 and 1 denoted “additivity”)”. For the same compound, the “synergy with an EZH2 inhibitor (tazemetostat)” value in assay [1] (A427 cells, dose matrix, Loewe excess matrix, isobologram (FIG. 2-5)) was “synergy”.

For `N.N.[Cl][Pt][Cl]` [Cisplatin, cisplatin], the “combinatorial effect with tazemetostat” value in assay [1] was “Syn. (Loewe volumes greater than 1 denoted “synergy”)”; in assay [2] it was “Syn. (Loewe volumes greater than 1 denoted “synergy”)”; in assay [3], “No eff”; in assay [4], “Add. (A value between −1 and 1 denoted “additivity”)”; in assay [5], “No eff”; in assay [6], “No eff”. Further, the “combinatorial effect with tazemetostat” value in [7] is “Syn. (Loewe volumes greater than 1 denoted “synergy”)”; in assay [8], “Syn. (Loewe volumes greater than 1 denoted “synergy”)”; in assay [9], “Add. (A value between −1 and 1 denoted “additivity”)”; in assay [10] it was “Anta. (volumes <−1 denoted “antagonism”)”; in assay [11], “Add. (A value between −1 and 1 denoted “additivity”)”; in assay [12] it was “Add. (A value between −1 and 1 denoted “additivity”)”. In addition, the “combinatorial effect with tazemetostat” value in assay [13] is “Anta. (volumes <−1 denoted “antagonism”)”; in [14], “Syn. (Loewe volumes greater than 1 denoted “synergy”)”; in [15], “Add. (A value between −1 and 1 denoted “additivity”)”; in [16], “Syn. (Loewe volumes greater than 1 denoted “synergy”)”; in assay [17], “Add. (A value between −1 and 1 denoted “additivity”)”; in [18], “Add. (A value between −1 and 1 denoted “additivity”)”.

Regarding `CC(=O)O[C@@]12CO[C@@H]1C[C@H](O)[C@@]1(C)C(=O)[C@H](O)C3=C(C)[C@@H](OC(=O)[C@H](O)[C@@H](NC(=O)OC(C)(C)C)c4ccccc4)C[C@@](O)([C@@H](OC(=O)c4ccccc4)[C@H]21)C3(C)C` [Docetaxel, docetaxel], the “combinatorial effect with tazemetostat” value in [1] was “Syn. (Loewe volumes greater than 1 denoted “synergy”)”; in [2], “Add. (A value between −1 and 1 denoted “additivity”)”; in [3] it was “Syn. (Loewe volumes greater than 1 denoted “synergy”)”; in assay [4], “Add. (A value between −1 and 1 denoted “additivity”)”; in assay [5], “Add. (A value between −1 and 1 denoted “additivity”)”; in assay [6], “Syn. (Loewe volumes greater than 1 denoted “synergy”)”. In addition, the “combinatorial effect with tazemetostat” value in assay [7] was “Add. (A value between −1 and 1 denoted “additivity”)”; in assay [8] it was “Syn. (Loewe volumes greater than 1 denoted “synergy”)”; in [9], “Add. (A value between −1 and 1 denoted “additivity”)”; in [10] it was “Add. (A value between −1 and 1 denoted “additivity”)”; in assay [11], “Add. (A value between −1 and 1 denoted “additivity”)”; in assay [12] it was “Syn. (Loewe volumes greater than 1 denoted “synergy”)”. The “combinatorial effect with tazemetostat” value in assay [13] was “Add. (A value between −1 and 1 denoted “additivity”)”; in [14] it was “Syn. (Loewe volumes greater than 1 denoted “synergy”)”; in assay [15] it was “Add. (A value between −1 and 1 denoted “additivity”)”; in assay [16], “Syn. (Loewe volumes greater than 1 denoted “synergy”)”; in [17], “Add. (A value between −1 and 1 denoted “additivity”)”; in [18] it was “Add. (A value between −1 and 1 denoted “additivity”)”.

Take `Nc1ccn([C@@H]2O[C@H](CO)[C@@H](O)C2(F)F)c(=O)n1` [Gemcitabine, gemcitabine]: the “combinatorial effect with tazemetostat” value in assay [1] was “Syn. (Loewe volumes greater than 1 denoted “synergy”)”; in assay [2] it was “Add. (A value between −1 and 1 denoted “additivity”)”; in [3] it was “Add. (A value between −1 and 1 denoted “additivity”)”; in assay [4] it was “Add. (A value between −1 and 1 denoted “additivity”)”; in assay [5], “Add. (A value between −1 and 1 denoted “additivity”)”; in [6] it was “Add. (A value between −1 and 1 denoted “additivity”)”. Further, the “combinatorial effect with tazemetostat” value was “Add. (A value between −1 and 1 denoted “additivity”)” in assay [7]; “Add. (A value between −1 and 1 denoted “additivity”)” in assay [8]; “Anta. (volumes <−1 denoted “antagonism”)” in [9]; “Add. (A value between −1 and 1 denoted “additivity”)” in assay [10]; “Add. (A value between −1 and 1 denoted “additivity”)” in assay [11]; “Add. (A value between −1 and 1 denoted “additivity”)” in assay [12]. The “combinatorial effect with tazemetostat” value in assay [13] is “Anta. (volumes <−1 denoted “antagonism”)”; in assay [14] it was “Syn. (Loewe volumes greater than 1 denoted “synergy”)”; in assay [15], “Add. (A value between −1 and 1 denoted “additivity”)”; in [16], “Add. (A value between −1 and 1 denoted “additivity”)”; in assay [17], “Add. (A value between −1 and 1 denoted “additivity”)”; in [18], “Add. (A value between −1 and 1 denoted “additivity”)”.
